# In US12178791B2, “Haloallylamine sulfone derivative inhibitors of lysyl oxidases and uses thereof” (Syntara Limited, priority 2018, dated 2024):
# Where a name gives a salt, the structure may show the parent alone. Read-outs that look alike come from different tables or passages of the source.
# Legend:
# LOX = LOX (Rattus norvegicus (Rat), UniProt P16636); conditions: CIA rats; cited from earlier work
# [1] = target: surgery induced systemic LOX (Mus musculus (Mouse), UniProt P28301); conditions: in vivo; cited from earlier work
# [2] = system: desmoplastic ovarian tumour; conditions: mouse, in vivo; cited from earlier work
# LOXL2 [3] = target: T1, LOXL2 (Homo sapiens (Human), UniProt Q9Y4K0); assay: LOXL2 inhibition, Amplex Red oxidation assay; format: biochemical; conditions: 30 min preincubation at 37 °C, putrescine substrate
# Summary of the method: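 LOXL2 in 1.2 M urea, 50 mM sodium borate pH 8.2 was preincubated with compound (11-point curve) for 30 min at 37 °C; mofegiline/pargyline were added only for non-purified enzyme. Reaction mix held 2× KM putrescine (10 mM), 120 μM Amplex Red and 1.5 U/mL HRP. H2O2 fluorescence (ex 565/em 590 nm) was read over 30 min, and IC50 came from slopes.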
# [4] = in vivo; cited from earlier work
# Recombinant human MAO-B = Recombinant human MAO-B (Homo sapiens (Human), UniProt P27338); assay: Inhibition of human recombinant MAO-B; format: biochemical; conditions: benzylamine 100 μM
# Description: The specificity of the compounds of this invention was tested by determining their ability to inhibit MAO-B activities in vitro. Recombinant human MAO-B (0.06 mg/mL; Sigma Aldrich) was used as source of MAO-B enzyme activities. The assay was performed in a similar way as for human SSAO/VAP-1 (Example 28) except, the substrate benzylamine was used at 100 μM.
# [5] = target: Human recombinant SSAO/VAP-1 (Homo sapiens (Human), UniProt Q16853); assay: Inhibition of human recombinant SSAO/VAP-1; format: biochemical
# Summary of the method: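 Purified enzyme (residues 34-763, expressed in CHO Lec8 cells; 0.25 μg/mL in 0.1 M sodium phosphate pH 7.4) was preincubated with compound 30 min at 37 °C. An added mix held 600 μM benzylamine, 120 μM Amplex Red and 1.5 U/mL HRP. Fluorescence (ex 565/em 590 nm) was read every 2.5 min for 30 min at 37 °C, and IC50 was derived from kinetic slopes over 4-11-point curves.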
# [6] = system: SiHa cervical cancer cells; conditions: cited from earlier work
# Bovine LOX = Bovine LOX (Bos taurus (Bovine), UniProt P33072); assay: LOX inhibition, Amplex Red oxidation assay; format: biochemical; conditions: 30 min preincubation at 37 °C, putrescine substrate
# Summary of the method: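 Bovine LOX in 1.2 M urea, 50 mM sodium borate pH 8.2, with 1 μM mofegiline and 0.5 mM pargyline unless recombinant or purified. The added mix held putrescine at twice KM (20 mM for LOX), 120 μM Amplex Red and 1.5 U/mL HRP.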
# MMTV-PyMT breast cancer = conditions: in vivo; cited from earlier work
# LOXL2 [7] = target: T1, LOXL2; assay: Jump dilution experiment, sustained inhibition of LOXL2; format: biochemical; conditions: jump dilution after 40 min at 37 °C with 10× or 30× IC50; vs non-inhibited controls;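 also: 30× IC50 used only where needed so inhibitor exceeds enzyme concentration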
# Description: (§1) Jump Dilution experiment: The assay was developed using a 96 well format and the starting enzyme concentration was set 100 times higher than for the inhibition studies. […] After the incubation, the mixture was diluted 50× in assay buffer, followed by a further 2× dilution in Amplex Red-horseradish peroxidase-putrescine reaction mix (same as per the inhibition studies) prior to the fluorescent measurement. Results were expressed in % recovery of the signal after a specified time by comparison with non-inhibited controls.
# GATA1low mice = assay: Mouse model of primary myelofibrosis; format: in vivo; conditions: 15 mg/kg i.p. four times a week for 10 weeks
# Description: Fifteen to sixteen week old GATA1low male and female mice were intra-peritoneal injected with either vehicle (olive oil), or Compound 19 at a dose of 15 mg/kg, four times a week for 10 weeks. The mice were then sacrificed and the spleens and femurs were harvested for histology and analysis (FIGS. 7(a-e) and FIGS. 8(a-d)).
# LOXL1 = LOXL1 (Homo sapiens (Human), UniProt Q08397); assay: Jump dilution experiment, sustained inhibition of LOXL1; format: biochemical; conditions: jump dilution after 40 min at 37 °C with 10× or 30× IC50; vs non-inhibited controls;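 also: 30× IC50 used only where needed so inhibitor exceeds enzyme concentration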
# Description: as §1
# rhSSAO = rhSSAO (Homo sapiens (Human), UniProt Q16853); assay: Measurement of substrate turnover by SSAO; format: biochemical; conditions: compound 2.5 mM, relative to background (dimethyl sulfoxide only)
# Description: In brief, the assay employed determines the substrate propensity of a compound relative to background (dimethyl sulfoxide only). Compound oxidation by rhSSAO was measured by fluorometric assay (Holt and Palcic, 2006). Briefly, rhSSAO was incubated for 2 hours at 37° C. in HEPES buffer before the addition of an equal volume of Amplex Red ([…]), horseradish peroxidase (4 U/ml), and Compound (2.5 mM) in the same buffer. The kinetics of the formation of resorufin was measured immediately using Optima reader (BMG Labtech GmbH, Ortenburg, Germany), at 37° C.
# [8] = 30 min preincubation at 37 °C, benzylamine 600 μM, read-out: SSAO/VAP-1 Activity IC50
# Chain of Bovine LOX (P33072 170-418): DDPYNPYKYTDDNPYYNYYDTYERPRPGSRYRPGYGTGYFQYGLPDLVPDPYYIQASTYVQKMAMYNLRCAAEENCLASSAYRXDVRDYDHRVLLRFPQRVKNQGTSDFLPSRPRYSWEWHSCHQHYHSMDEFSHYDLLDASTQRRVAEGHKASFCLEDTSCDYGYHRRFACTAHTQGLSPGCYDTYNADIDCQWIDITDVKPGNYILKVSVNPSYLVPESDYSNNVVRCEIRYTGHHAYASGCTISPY
# Chain of Human recombinant SSAO/VAP-1 (Q16853 34-763): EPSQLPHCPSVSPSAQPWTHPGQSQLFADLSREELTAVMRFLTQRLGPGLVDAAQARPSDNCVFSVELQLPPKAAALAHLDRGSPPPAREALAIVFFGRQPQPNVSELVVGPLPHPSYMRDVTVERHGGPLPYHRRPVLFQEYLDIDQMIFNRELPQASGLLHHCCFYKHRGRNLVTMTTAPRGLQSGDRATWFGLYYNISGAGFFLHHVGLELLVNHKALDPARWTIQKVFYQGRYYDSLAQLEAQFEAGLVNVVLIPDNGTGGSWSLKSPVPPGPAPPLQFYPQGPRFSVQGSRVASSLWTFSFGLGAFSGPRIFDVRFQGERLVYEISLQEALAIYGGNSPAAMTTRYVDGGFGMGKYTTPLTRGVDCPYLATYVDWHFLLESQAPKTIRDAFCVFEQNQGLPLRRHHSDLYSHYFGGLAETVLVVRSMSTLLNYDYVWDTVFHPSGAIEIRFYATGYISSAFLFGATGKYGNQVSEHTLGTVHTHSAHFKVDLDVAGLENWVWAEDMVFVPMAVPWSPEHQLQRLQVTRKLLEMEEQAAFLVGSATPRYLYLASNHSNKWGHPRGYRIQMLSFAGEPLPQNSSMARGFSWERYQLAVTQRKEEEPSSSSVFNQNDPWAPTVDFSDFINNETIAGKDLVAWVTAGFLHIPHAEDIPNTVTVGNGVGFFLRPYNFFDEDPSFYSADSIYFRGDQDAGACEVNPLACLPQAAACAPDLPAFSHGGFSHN
# T1 sequence (Q9Y4K0 26-774): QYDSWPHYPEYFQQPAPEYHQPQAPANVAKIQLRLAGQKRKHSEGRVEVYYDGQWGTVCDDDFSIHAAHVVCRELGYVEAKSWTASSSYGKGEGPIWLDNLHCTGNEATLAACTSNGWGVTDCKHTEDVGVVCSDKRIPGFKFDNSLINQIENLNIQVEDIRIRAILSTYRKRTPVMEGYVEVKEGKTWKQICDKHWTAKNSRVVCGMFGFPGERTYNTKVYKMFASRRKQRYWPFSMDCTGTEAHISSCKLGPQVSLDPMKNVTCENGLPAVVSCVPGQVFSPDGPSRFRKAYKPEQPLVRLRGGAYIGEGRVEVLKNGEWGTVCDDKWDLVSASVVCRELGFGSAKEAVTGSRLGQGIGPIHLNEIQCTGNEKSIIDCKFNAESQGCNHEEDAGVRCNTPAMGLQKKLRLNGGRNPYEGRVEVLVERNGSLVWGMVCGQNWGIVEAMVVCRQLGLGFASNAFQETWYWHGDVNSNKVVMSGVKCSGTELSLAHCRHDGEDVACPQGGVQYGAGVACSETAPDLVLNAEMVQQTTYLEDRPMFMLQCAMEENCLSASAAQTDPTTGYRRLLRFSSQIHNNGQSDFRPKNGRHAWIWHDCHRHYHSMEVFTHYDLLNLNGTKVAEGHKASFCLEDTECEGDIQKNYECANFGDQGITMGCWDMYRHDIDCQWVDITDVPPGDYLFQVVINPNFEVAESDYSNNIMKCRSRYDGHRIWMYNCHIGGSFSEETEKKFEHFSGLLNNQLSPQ
# Chain of LOXL1 (Q08397 96-574, species assumed): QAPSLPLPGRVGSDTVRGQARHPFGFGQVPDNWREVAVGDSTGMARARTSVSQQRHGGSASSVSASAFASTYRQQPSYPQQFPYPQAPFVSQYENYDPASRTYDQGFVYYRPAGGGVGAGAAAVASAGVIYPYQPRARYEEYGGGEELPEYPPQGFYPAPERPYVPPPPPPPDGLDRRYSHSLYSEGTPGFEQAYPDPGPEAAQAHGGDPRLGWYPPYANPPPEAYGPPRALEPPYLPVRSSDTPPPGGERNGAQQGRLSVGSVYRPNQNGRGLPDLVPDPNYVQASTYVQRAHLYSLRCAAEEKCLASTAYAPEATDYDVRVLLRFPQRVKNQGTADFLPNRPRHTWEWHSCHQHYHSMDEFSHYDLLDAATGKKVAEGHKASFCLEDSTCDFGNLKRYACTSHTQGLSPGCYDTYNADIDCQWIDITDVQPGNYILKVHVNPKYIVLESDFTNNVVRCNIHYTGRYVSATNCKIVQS
# Chain of Recombinant human MAO-B (P27338 whole entry): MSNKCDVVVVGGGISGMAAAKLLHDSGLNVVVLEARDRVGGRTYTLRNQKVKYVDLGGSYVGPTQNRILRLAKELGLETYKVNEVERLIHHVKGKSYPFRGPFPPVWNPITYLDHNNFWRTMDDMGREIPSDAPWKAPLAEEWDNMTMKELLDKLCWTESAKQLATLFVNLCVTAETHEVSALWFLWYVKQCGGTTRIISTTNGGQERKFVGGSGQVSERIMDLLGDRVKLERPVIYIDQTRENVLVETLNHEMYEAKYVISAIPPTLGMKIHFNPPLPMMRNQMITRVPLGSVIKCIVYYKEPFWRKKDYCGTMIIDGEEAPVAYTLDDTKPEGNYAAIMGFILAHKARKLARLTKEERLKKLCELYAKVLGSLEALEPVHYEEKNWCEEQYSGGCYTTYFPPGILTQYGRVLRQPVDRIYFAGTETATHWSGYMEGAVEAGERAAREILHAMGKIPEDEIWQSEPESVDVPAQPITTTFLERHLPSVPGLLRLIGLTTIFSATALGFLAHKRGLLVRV
# Chain of rhSSAO (Q16853 whole entry): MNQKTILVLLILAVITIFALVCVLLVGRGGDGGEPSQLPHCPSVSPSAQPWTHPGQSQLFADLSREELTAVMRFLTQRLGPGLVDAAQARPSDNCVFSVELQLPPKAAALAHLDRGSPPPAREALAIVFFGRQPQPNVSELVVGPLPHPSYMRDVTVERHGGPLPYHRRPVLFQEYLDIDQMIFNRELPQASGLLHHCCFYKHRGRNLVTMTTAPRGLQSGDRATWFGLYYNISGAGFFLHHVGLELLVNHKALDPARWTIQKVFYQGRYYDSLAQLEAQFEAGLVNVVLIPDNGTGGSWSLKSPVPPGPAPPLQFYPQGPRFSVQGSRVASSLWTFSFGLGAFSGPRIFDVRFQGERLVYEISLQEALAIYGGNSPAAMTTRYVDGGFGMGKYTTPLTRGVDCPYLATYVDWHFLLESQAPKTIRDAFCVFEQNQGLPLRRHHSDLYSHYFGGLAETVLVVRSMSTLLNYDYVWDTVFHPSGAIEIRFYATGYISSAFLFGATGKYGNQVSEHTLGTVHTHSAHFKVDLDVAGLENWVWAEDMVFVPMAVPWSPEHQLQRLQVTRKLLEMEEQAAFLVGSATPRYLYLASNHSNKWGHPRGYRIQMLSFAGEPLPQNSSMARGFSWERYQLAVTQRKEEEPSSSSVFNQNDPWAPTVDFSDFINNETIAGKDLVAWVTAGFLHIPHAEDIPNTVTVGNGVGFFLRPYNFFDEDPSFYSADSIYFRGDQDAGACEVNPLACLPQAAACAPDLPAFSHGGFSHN
# Chain of LOX (P16636 163-411): as the sequence (P33072 170-418) above, with T10S, P27S, Y31H, A64S, X84A, N188A, K202Q counted along it
# Chain of surgery induced systemic LOX (P28301 163-411): as the sequence (P33072 170-418) above, with T10S, Y31N, A64S, X84A, S142N, N188A, K202Q, S224T, E231D counted along it
smiles,measurement,setting,value
"N#CCCN [BAPN, β-aminopropionitrile]","inflammation, synovial hyperplasia, angiogenesis and expression of MMP-2 and MMP-9",LOX,attenuate
same,metastasis and survival after surgery induced systemic LOX,[1],reducing metastasis and increasing survival
same,lung metastasis,[2],decreased
same,survival,[2],significantly increased
same,IC50,LOXL2 [3],< 1 µM
same,tolerability in human patients with scleroderma,[4],poorly tolerated
same,IC50,Recombinant human MAO-B,> 30 µM
same,IC50,[5]; [8],> 30 µM
same,increased invasion in vitro under hypoxic/anoxic conditions,[6],repressed
same,IC50,Bovine LOX,< 10 µM
CS(=O)(=O)c1cc(-c2ccccc2)cc(S(=O)(=O)c2ccc(CN)s2)c1 [CCT365623],metastasis and survival,MMTV-PyMT breast cancer,reduce metastasis and increase survival
"NC/C=C(\F)CS(=O)(=O)c1ccccc1Cl [Compound 19, (Z)-4-(2-chlorophenylsulfonyl)-3-fluorobut-2-en-1-amine hydrochloride]",IC50,LOXL2 [3],< 1 µM
same,IC50,Recombinant human MAO-B,> 30 µM
same,IC50,[5]; [8],> 30 µM
same,IC50,Bovine LOX,< 10 µM
same,LOXL2 - Recovery of activity. (%),LOXL2 [7],7.9%
same,Bone marrow (BM) and splenic fibrosis,GATA1low mice; vs vehicle,significantly decreased
same,Morphologic BM megakaryocytes (MKs) on H&E stain,GATA1low mice; p<0.001 vs vehicle,24.65±0.6 per 20× field
same,platelet count post-treatment,GATA1low mice; p<0.05 vs vehicle,77.5±4.4 K/uL
same,spleen weights adjusted to body weight,GATA1low mice; p<0.05 vs vehicle,242.25 ± 18 mg
same,LOXL1 - Recovery of activity. (%),LOXL1,7.8%
"NC/C=C(\F)CS(=O)(=O)c1cccnc1 [Compound 31, (Z)-3-fluoro-4-(pyridin-3-ylsulfonyl)but-2-en-1-amine dihydrochloride]",IC50,LOXL2 [3],< 1 µM
same,Substrate activity for rhSSAO,rhSSAO,no significant turnover
same,IC50,[5]; [8],> 30 µM
same,IC50,"[5]; second Table 6 (Example 38), read-out: Recombinant human SSAO (rhSSAO) inhibition (IC50)",27 µM
same,IC50,Bovine LOX,< 10 µM
same,LOXL1 - Recovery of activity. (%),LOXL1,8.2%
